Common to all, as to format: biochemical
One assay addresses T1, Human Tyk2 kinase domain (Homo sapiens, UniProt P29597).
T1 construct: comprising amino acids 886 to 1187; His10 (10 histidine residues) (C, cleaved yes); made in house
T1 sequence (P29597 886-1187): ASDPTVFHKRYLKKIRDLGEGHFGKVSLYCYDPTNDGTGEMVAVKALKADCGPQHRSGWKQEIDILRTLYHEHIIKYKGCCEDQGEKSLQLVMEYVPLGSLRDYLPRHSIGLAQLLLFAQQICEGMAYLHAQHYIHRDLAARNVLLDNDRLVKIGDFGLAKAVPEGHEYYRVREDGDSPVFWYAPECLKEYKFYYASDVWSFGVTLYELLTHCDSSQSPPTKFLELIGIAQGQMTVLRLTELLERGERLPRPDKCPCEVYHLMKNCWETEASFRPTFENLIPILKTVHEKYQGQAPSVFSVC
Briefly: Tyk2 Inhibition Assay (Omnia kinase fluorescence peptide substrate). As to conditions: averaged IC50 ranges; 10 μM (Km app) or 1 mM ATP, 2 nM Tyk2. In a few lines: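 Phosphorylation of 8 μM Omnia Y12 peptide followed kinetically by Sox fluorescence, ex 360/em 485 nm, every 50 s for 45 min. Enzyme: 2 nM Tyk2 kinase domain (aa 886–1187, His tag removed); ATP at 10 μM (Km app) or 1 mM; buffer HEPES pH 7.4 with MgCl2, Triton X-100, DTT. 10-point curves up to 10 μM, IC50 from 4-parameter logistic fit.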

The next assay deals with T2, JAK1 (Homo sapiens, UniProt P23458).
T2 construct: purchased Invitrogen Corporation, Carlsbad, Calif; IVGN PV4775
Briefly: JAK1 Inhibition Assay (Omnia kinase fluorescence peptide substrate). The note with it: averaged IC50 ranges; 40 μM (Km app) or 1 mM ATP, 15 nM JAK1. In a few lines: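 15 nM JAK1, 8 μM Omnia Y12 peptide, 40 μM (Km app) or 1 mM ATP; 25 mM HEPES pH 7.4, 10 mM MgCl2, 2% DMSO. Fluorescence (ex 360/em 485 nm) read every 50 s over 45 min. IC50 by 4-parameter fit of percent of control, top dose 10 μM.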

The target of the next assay is T3, JAK2 (Homo sapiens, UniProt O60674).
T3 construct: purchased Invitrogen Corporation, Carlsbad, Calif; IVGN PV4288
Briefly: JAK2 Inhibition Assay (Omnia kinase fluorescence peptide substrate). The note with it: averaged IC50 ranges; 25 μM (Km app) or 1 mM ATP, 5 nM JAK2.

A further assay concerns the target T4, JAK3 (Homo sapiens, UniProt P52333).
T4 construct: purchased Invitrogen Corporation, Carlsbad, Calif; IVGN PV4080
T4 sequence (P52333 1-1124): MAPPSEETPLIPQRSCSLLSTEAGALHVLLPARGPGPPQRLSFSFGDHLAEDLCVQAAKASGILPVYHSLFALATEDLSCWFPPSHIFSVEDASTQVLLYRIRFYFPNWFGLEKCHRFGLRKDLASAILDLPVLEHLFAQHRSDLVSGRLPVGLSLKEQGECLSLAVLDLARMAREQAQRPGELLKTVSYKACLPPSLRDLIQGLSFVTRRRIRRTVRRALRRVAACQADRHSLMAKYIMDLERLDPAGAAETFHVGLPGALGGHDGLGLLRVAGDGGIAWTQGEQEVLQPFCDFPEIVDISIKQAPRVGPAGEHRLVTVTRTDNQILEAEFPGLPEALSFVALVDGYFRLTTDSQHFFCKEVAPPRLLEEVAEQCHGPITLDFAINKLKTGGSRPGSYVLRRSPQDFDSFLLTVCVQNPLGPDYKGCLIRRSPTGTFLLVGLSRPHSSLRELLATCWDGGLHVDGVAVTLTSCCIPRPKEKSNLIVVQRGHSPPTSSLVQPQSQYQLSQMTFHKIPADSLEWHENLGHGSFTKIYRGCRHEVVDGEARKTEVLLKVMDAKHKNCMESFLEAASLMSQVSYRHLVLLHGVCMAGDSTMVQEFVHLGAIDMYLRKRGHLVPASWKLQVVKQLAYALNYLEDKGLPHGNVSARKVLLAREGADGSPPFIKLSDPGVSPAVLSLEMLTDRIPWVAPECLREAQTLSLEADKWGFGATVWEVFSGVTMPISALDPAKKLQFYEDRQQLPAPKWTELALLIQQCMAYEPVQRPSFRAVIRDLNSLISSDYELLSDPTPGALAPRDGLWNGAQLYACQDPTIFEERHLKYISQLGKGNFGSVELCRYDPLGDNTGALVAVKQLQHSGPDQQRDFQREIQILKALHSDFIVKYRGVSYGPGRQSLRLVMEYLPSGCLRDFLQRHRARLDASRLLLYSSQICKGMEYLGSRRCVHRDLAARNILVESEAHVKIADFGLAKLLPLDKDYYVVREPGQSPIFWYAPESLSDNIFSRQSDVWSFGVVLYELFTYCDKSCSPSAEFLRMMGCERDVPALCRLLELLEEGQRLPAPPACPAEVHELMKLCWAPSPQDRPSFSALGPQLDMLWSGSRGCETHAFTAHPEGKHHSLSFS
Briefly: JAK3 Inhibition Assay (Omnia kinase fluorescence peptide substrate). The note with it: averaged IC50 ranges; 10 μM (Km app) or 1 mM ATP, 2.5 nM JAK3. In a few lines:
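IC50 is the concentration giving 50 percent of control on a 4-parameter logistic fit of 10-point, 3-fold dilutions from a 10 μM top dose, at 2% final DMSO. Kinetic Sox fluorescence (360/485 nm) was monitored every 50 s for 45 min. Mix: JAK3 2.5 nM, Omnia Y7 peptide 10 μM, ATP 10 μM (Km app) or 1 mM, in HEPES pH 7.4 buffer with MgCl2, Triton X-100 and DTT.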

Assay [1] deals with Tyk2, JAK1, JAK2 and JAK3. Nature of the assay: in vitro assays (Examples A, B, C and D) taken together. The note with it: Reference Examples; statement in words. The text has this:
The assays described in Examples A, B, C and D for the determination of Tyk2, JAK1, JAK2 and JAK3 kinase activity, respectively, utilized the Omnia® Kinase fluorescence peptide substrate-based technology (Invitrogen). The specific components of the assay mixture are described in Examples A, B, C and D. In these assays, Mg^2+ is chelated upon phosphorylation of the Omnia peptide by the kinase to form a bridge between the chelation-enhanced fluorophore Sox and the phosphate, resulting in an increase in fluorescence emission at 485 nm when excited at […]. The reactions were therefore read at excitation 360 nm and emission was measured at 485 nm every 50 seconds for 45 minutes using a PerkinElmer EnVision Multilabel Plate Reader.
The final buffer conditions for Tyk2, JAK1, JAK2, and JAK3 assays were as follows: 25 mM HEPES, pH 7.4, 10 mM MgCl2, 0.01% Triton X-100 and 1 mM DTT.
Compounds were prepared at 50× the final concentration in DMSO by conducting 3-fold serial dilutions from a 500-μM intermediate dilution to give a 10-point dosing curve having a high dose of 10 μM. Two-μL aliquots of these were transferred to a fresh plate for a ten-fold intermediate dilution with assay buffer. Five-μL aliquots of the diluted compounds were then transferred to 20-μL of assay mixtures described in Examples A, B, C and D for a final concentration of DMSO of 2%. A standard or reference compound was typically included on each assay plate to validate that plate. For each plate, percent of control (POC) values were calculated for each well according to the following equation: […]
Compounds of Formula I were screened for their ability to inhibit Tyk2 using the general enzyme inhibition assay method, in which the assay mixture contained 10 μM (Km app) or 1 mM ATP, 8 μM Omnia® Y12 peptide (Catalog #IVGN KPZ3121C; Invitrogen Corporation, Carlsbad, Calif.) and 2 nM Tyk2 in a total volume of 20 μL. Human Tyk2 kinase domain, comprising amino acids 886 to 1187 with 10 additional histidine residues (histidine tag) on the carboxy terminus, was expressed and purified from bacculovirus in-house at Array BioPharma Inc. (Boulder, Colo.). The histidine tag was cleaved after purification using standard conditions.
Compounds of Formula I were screened for their ability to inhibit JAK1 using the general enzyme inhibition assay method, in which the assay mixture contained 40 μM (Km app) or 1 mM ATP, 8 μM Omnia® Y12 peptide (Catalog #IVGN KPZ3121C; Invitrogen Corporation, Carlsbad, Calif.) and 15 nM JAK1 in a total volume of 20 μL. JAK1 was purchased from Invitrogen Corporation, Carlsbad, Calif. (catalog #IVGN PV4775).
Compounds of Formula I were screened for their ability to inhibit JAK2 using the general enzyme inhibition assay method, in which the assay mixture contained 25 μM (Km app) or 1 mM ATP, 10 μM Omnia® Y7 peptide (Catalog #IVGN KNZ3071C, Invitrogen Corporation, Carlsbad, Calif.) and 5 nM JAK2 in a total volume of 20 μL. JAK2 was purchased from Invitrogen Corporation, Carlsbad, Calif. (catalog #IVGN PV4288).
Compounds of Formula I were screened for their ability to inhibit JAK3 using the general enzyme inhibition assay method, in which the assay mixture contained 10 μM (Km app) or 1 mM ATP, 10 μM Omnia® Y7 peptide (Catalog #IVGN KNZ3071C, Invitrogen Corporation, Carlsbad, Calif.) and 2.5 nM JAK3 in a total volume of 20 μL. JAK3 was purchased from Invitrogen Corporation, Carlsbad, Calif. (catalog #IVGN PV4080).

T2 sequence (P23458 whole entry): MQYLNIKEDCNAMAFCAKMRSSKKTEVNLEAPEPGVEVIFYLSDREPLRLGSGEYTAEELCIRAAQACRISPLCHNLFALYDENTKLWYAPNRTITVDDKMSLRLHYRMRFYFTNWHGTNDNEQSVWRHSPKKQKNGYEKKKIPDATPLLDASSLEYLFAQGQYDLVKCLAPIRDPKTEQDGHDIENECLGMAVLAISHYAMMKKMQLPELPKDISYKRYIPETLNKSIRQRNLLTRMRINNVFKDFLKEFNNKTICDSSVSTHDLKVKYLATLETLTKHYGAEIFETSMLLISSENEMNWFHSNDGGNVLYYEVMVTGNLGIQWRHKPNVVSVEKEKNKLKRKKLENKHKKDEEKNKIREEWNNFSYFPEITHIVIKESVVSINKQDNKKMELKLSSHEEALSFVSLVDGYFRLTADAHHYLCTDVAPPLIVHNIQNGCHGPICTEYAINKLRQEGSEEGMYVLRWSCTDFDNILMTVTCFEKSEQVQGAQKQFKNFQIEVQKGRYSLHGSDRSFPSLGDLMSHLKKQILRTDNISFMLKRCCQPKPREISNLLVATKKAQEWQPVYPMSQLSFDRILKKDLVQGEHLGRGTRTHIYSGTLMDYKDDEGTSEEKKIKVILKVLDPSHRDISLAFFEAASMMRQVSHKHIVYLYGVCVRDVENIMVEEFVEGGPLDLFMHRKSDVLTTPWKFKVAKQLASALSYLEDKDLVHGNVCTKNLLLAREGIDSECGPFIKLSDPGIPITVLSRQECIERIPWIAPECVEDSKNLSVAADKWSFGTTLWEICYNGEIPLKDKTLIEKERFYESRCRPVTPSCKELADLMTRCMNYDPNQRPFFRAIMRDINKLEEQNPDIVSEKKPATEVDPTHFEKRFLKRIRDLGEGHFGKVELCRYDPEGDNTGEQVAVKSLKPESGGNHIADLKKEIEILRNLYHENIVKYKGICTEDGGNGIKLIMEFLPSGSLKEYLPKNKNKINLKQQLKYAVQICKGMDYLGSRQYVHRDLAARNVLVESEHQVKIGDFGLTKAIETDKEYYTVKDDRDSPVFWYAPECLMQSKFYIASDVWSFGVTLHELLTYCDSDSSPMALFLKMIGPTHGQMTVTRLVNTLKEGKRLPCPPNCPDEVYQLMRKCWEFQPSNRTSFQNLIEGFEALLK
T3 sequence (O60674 whole entry): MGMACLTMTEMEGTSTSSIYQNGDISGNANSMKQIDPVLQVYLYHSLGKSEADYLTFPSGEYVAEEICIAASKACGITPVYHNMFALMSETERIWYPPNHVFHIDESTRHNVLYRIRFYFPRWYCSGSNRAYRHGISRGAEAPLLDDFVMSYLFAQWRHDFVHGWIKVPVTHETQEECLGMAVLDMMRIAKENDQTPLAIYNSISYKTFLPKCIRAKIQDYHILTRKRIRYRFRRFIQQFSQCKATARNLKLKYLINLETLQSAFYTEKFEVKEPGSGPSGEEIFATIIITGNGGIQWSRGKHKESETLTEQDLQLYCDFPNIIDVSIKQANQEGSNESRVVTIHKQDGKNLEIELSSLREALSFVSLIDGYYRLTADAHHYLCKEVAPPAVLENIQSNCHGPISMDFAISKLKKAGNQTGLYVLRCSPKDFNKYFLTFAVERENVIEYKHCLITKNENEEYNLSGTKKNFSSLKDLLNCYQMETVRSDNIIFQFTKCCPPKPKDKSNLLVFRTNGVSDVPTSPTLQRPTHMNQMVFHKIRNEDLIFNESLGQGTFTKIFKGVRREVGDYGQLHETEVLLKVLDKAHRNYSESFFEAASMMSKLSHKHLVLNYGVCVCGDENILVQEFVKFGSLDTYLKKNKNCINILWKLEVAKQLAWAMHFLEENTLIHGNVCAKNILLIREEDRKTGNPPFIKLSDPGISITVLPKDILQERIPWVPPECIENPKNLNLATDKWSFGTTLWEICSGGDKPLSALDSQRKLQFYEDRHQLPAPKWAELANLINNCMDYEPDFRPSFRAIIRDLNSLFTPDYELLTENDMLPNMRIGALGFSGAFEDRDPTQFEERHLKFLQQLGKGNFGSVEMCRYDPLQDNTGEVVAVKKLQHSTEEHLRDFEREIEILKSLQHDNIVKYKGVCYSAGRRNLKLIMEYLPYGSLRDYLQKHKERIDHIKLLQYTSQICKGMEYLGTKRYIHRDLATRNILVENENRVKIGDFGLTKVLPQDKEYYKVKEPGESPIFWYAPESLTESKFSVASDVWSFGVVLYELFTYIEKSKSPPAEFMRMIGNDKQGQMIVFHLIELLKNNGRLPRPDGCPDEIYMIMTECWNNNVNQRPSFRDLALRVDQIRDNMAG

By IC50 is commonly meant the concentration that inhibits the measured activity by half. Take `COCCC1(n2cc(-c3nc(-c4cnn(C)c4)cc4nccn34)cn2)CN(C(=O)N(C)C)C1` [Example 99, 3-(2-methoxyethyl)-N,N-dimethyl-3-(4-(7-(1-methyl-1H-pyrazol-4-yl)imidazo[1,2-c]pyrimidin-5-yl)-1H-pyrazol-1-yl)azetidine-1-carboxamide]: the IC50 at Human Tyk2 kinase domain, on JAK1, at JAK2 and against JAK3 was greater than 1 µM in each case. Further, the “activity in the in vitro assays” value in assay [1] is listed as “weakly active”.

The record behind these values is patent US20140228349A1, “5,7-SUBSTITUTED-IMIDAZO[1,2-C]PYRIMIDINES” (Array BioPharma Inc., priority 2011, published 2014).
